From patent US6464958B1, “Process for the preparation of suspensions of drug particles for inhalation delivery” (Chiesi Farmaceutici S.p.A., priority 1998, dated 2002)
Read-outs that look alike come from different tables or passages of the source.

Assays:
[1] = HPLC purity and related substances of micronised BDP after gamma-irradiation; format: physicochemical
Procedure: (§1) About 600 g of micronised BDP was stored in a 20 1 polythene container after having replaced air by nitrogen, the container was in turn sealed in two Polikem bag. The product was subjected to gamma-irradiation at 2 to 9 KGy. After the exposure, the BDP purity and the amount of related substances were determined by HPLC. On the batch subjected to 2 kGy dose, the particle size as well as the loss of weight were also determined by Malvern analysis and TGA respectively, in comparison to the non-irradiated product.

[2] = cited from earlier work; for stability after gamma-irradiation: 60Co, 1 to 4 Mrad; for degradation degree: micronised steroids, radiation doses 4.5 and 15 Mrad
[3] = Loss of weight by TGA of micronised BDP after gamma-irradiation; format: physicochemical
Procedure: as §1

[4] = Particle size of micronised BDP powder by Malvern analysis; format: physicochemical
Procedure: as §1

CCC(=O)OCC(=O)[C@@]1(OC(=O)CC)[C@@H](C)C[C@H]2[C@@H]3CCC4=CC(=O)C=C[C@]4(C)[C@@]3(Cl)[C@@H](O)C[C@@]21C [BDP, beclomethasone dipropionate]
stability after exposure to gamma-irradiation ([1]; 2 to 9 KGy): stable
stability after gamma-irradiation ([2]; powder): stable immediately after irradiation
stability after gamma-irradiation ([2]; solution in methanol or propylene glycol): quick degradation

CCC(=O)OCC(=O)[C@@]1(OC(=O)CC)[C@@H](C)C[C@H]2[C@@H]3CCC4=CC(=O)C=C[C@]4(C)[C@@]3(Cl)[C@@H](O)C[C@@]21C [Irr. BDP, beclomethasone dipropionate]
Purity (%) ([1]; gamma-irradiation 2 KGy): 99.6%
Related substances (%) ([1]; gamma-irradiation 2 KGy): 0.4%
Purity (%) ([1]; gamma-irradiation 3.17 KGy): 99.6%
Related substances (%) ([1]; gamma-irradiation 3.17 KGy): 0.4%
Purity (%) ([1]; gamma-irradiation 9.08 KGy): 99.3%
Related substances (%) ([1]; gamma-irradiation 9.08 KGy): 0.7%
Loss of weight (%, TGA) ([3]; gamma-irradiation 2 KGy): 0.13%
Particle size distribution (μm, Malvern) d (0.1) ([4]; gamma-irradiation 2 KGy): 0.48 μm
Particle size distribution (μm, Malvern) d (0.5) ([4]; gamma-irradiation 2 KGy): 1.81 μm
Particle size distribution (μm, Malvern) d (0.9) ([4]; gamma-irradiation 2 KGy): 5.73 μm

CCC(=O)OCC(=O)[C@@]1(OC(=O)CC)[C@@H](C)C[C@H]2[C@@H]3CCC4=CC(=O)C=C[C@]4(C)[C@@]3(Cl)[C@@H](O)C[C@@]21C [Non-irr. BDP, beclomethasone dipropionate]
Purity (%) ([1]; non-irradiated): 99.7%
Related substances (%) ([1]; non-irradiated): 0.3%
Loss of weight (%, TGA) ([3]; non-irradiated micronised powder): 0.12%
Particle size distribution (μm, Malvern) d (0.1) ([4]; non-irradiated powder): 0.49 μm
Particle size distribution (μm, Malvern) d (0.5) ([4]; non-irradiated powder): 1.91 μm
Particle size distribution (μm, Malvern) d (0.9) ([4]; non-irradiated powder): 5.98 μm

C[C@]12CCC(=O)C=C1CC[C@@H]1[C@@H]2[C@@H](O)C[C@@]2(C)[C@H]1CC[C@]2(O)C(=O)COC(=O)CCC(=O)O [hydrocortisone sodium succinate]
percentage of degradation ([2]; powder corticosteroids sterilised with 60Co): 1.4 %/Mrad

C[C@]12CCC(=O)C=C1CC[C@@H]1[C@@H]2[C@@H](O)C[C@@]2(C)[C@H]1CC[C@]2(O)C(=O)CO [hydrocortisone]
degradation degree [2]: about 2.4%

C[C@]12C=CC(=O)C=C1CC[C@@H]1[C@@H]2[C@@H](O)C[C@@]2(C)[C@H]1CC[C@]2(O)C(=O)CO [prednisolone]
degradation degree [2]: about 2.4%
